Tests used:
human IgG [1] = settings: cited from earlier work
rabbit IgG = target: T1, rabbit IgG (Oryctolagus cuniculus, UniProt P01870); settings: Gong et al.; cited from earlier work
T1 construct: purchased Sigma-Aldrich

IgG-Fc-region = settings: DeLano et al. 2000; cited from earlier work
human IgG [2] = experiment: SPR interaction assay (Biacore), scaffolds immobilised, human IgG as analyte; assay type: binding; settings: hIgG at 25° C.
Procedure: Surface plasmon resonance (SPR) The affinities and binding kinetics of the generated TtSlyD-Fc-III-4C mutants were evaluated by SPR using a Biacore biosensensor system. The Biacore system enables a real-time monitoring of intermolecular interactions between the ligand, immobilised on a sensor chip gold-surface, and the analyte which is free in solution and passes over the ligand (Healthcare, G., Biacore™ Assay Handbook 29-0194-00 Edition AA). Interaction of the binding partners leads to SPR signals (responses), measured in resonance units (RU) and illustrated as plot against time (sensorgram).
Regarding the procedure, in brief, the analyte is injected on the chip, interacting with the immobilised ligand. The change in concentration of molecules at the chip surface leads to a change in the refractive index, monitored as response unit (RU). Dissociation of analyte is triggered by continues buffer flow, followed by complete removal (chip regeneration) and starting of a new analysis cycle. […]
Interaction kinetics are examined by monitoring different analyte concentrations over time. Kinetic parameters, such as association (ka) and dissociation rate constants (kd) are evaluated in relation to a mathematical model. […]

T1 sequence (P01870 whole entry): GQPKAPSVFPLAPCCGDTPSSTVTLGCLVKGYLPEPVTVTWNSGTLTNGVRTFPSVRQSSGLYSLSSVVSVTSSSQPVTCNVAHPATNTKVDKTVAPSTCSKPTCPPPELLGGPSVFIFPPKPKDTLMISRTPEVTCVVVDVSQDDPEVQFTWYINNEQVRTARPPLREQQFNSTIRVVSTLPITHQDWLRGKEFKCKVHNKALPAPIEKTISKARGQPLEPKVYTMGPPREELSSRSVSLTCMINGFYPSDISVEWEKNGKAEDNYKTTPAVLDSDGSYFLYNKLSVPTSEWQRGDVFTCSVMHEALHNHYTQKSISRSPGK

In the case of CDCAWHLGELVWCTC [Fc-III-4C], the “higher binding affinity to human IgG compared to the original Fc-III” value (human IgG [1]; SPR) is listed as 30 fold, the Kd (human IgG [1]; human IgG, Gong et al. 2016) is listed as 2.45 nM and the Kd (rabbit IgG) is listed as 5.67 nM.

For DCAWHLGELVWCT [Fc-III], the “binding affinity relative to Protein A” value (IgG-Fc-region) is listed as “only about two fold weaker”.

B1: TtSlyD-Fc-III-2C Hit No. 4: SlyD chimera whose IF domain is replaced by Fc-III-XC peptide EDCAWHLGELVWCTE, SEQ ID NO: 16 (protein)
chain: MKVGQDKVVTIRYTLQVEGEVLDQGELSYLHGHRLIPGLEEALEGREEGEAFQAHVPAEKAYEDCAWHLGELVWCTEGKDLDFQVEVVKVREATPEELLHGHA
modifications: left off: small tags and cut ends
In the case of B1, the “binding affinity KA” value (human IgG [2]) is reported as 1.09e+08 M⁻¹ and the t/2 diss (human IgG [2]) is reported as 36 min.

From patent publication US20250197457A1, “CHIMERIC IGG-FC-BINDING LIGAND POLYPEPTIDE AND USES THEREOF FOR IGG AFFINITY PURIFICATION” (Roche Diagnostics Operations, Inc., priority 2021, published 2025)
